PubChem BioAssay (NCI)
“And” between values parts separate entries of the source, which are not always exact repeats. Identical values can stand only once.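 These data come from cells grown in 96-well plates and exposed to compound for 48 hours at five concentrations. GI50 marks 50% less growth. At the TGI there is no net growth.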

Experiments:
Assay in all cases: NCI-60 cell line screen, 48 h
[1] = tested on: IGROV1 ovarian
[2] = tested on: KM12 colon
[3] = tested on: MCF7 breast
[4] = tested on: OVCAR-3 ovarian
[5] = tested on: MDA-MB-435
[6] = tested on: LOX IMVI melanoma
[7] = tested on: HL-60(TB) leukemia
[8] = tested on: 786-0 renal
[9] = tested on: HCC-2998 colon
[10] = tested on: NCI-H23 lung

Row | SMILES | GI50 [1] | TGI [1] | GI50 [2] | TGI [2] | GI50 [3] | TGI [3] | GI50 [4] | TGI [4] | GI50 [5] | TGI [5] | GI50 [6] | TGI [6] | GI50 [7] | TGI [7] | GI50 [8] | TGI [8] | GI50 [9] | TGI [9] | GI50 [10] | TGI [10]
1 | O=C(O)c1ccc2c(c1)CCCC(c1ccc(Cl)cc1Cl)=C2c1ccc(O[C@H]2CCN(CCCF)C2)cc1 | 13.8 µM | 35.6 µM | 7.29 µM | 20.3 µM | < 0.01 µM | 15.9 µM | 12.1 µM | 24.7 µM | 10.5 µM | 24.3 µM | 11 µM | 26.1 µM | 7.41 µM | 22.7 µM | 12.9 µM | 28 µM | 13.6 µM | 27.9 µM | 13.2 µM | 29.3 µM
2 | COc1ccc(-c2ccc(-c3ccc(C(=N)N)cn3)o2)cc1 | 5.29 µM | 19 µM | 4.41 µM | 15.5 µM | 3.17 µM | 13.4 µM | 8.9 µM | 21.6 µM | 2.18 µM | 4.97 µM | 2.58 µM | 6.86 µM | 2.14 µM | 5.7 µM | 6.02 µM | 18.8 µM | 2.45 µM | 5.71 µM | 11.6 µM | 25.5 µM
3 | COc1ccc2[nH]c(O)c(C(=Nc3ccc(N(C)C(=O)CN4CCN(C)CC4)cc3)c3ccccc3)c2c1 | 1.36 µM | 10.1 µM | 0.0197 µM | 10.5 µM | 0.725 µM | 3.62 µM | 2.9 µM | 7.31 µM | 1.29 µM | 11.3 µM | 1.02 µM | 2.19 µM | 0.88 µM | 2.86 µM | 1.9 µM | 5.52 µM | 2.47 µM | 8.59 µM | 1.73 µM | 12.2 µM
4 | CCOc1cccc(/C=N/NC(=O)C(=O)Nc2cccc(C(F)(F)F)c2)c1O | 1.3 µM | 25.8 µM | 3 µM | > 100 µM | 2.14 µM | > 100 µM | 0.407 µM | > 100 µM | 4.16 µM | > 100 µM | 1.44 µM | 22.2 µM | 0.89 µM | 4.45 µM | 3.27 µM | 41.3 µM | 3.28 µM | > 100 µM | 4.57 µM | > 100 µM
5 | CCC[n+]1cc2cc(OC)c(OC)cc2c2c1-c1cc3c(cc1C2)OCO3 | 2.27 µM | 12.6 µM | 2.12 µM | 7.03 µM | 2.59 µM | > 33.8 µM | 0.955 µM | 5.78 µM | 3.29 µM | 12.4 µM | 8.25 µM | > 62.2 µM | 11 µM | > 54.1 µM | 1.11 µM | 12.3 µM | 3.99 µM | 14.9 µM | 2.34 µM | 13.2 µM
6 | C=C1C(=O)O[C@H]2[C@H]1CC/C(COC(=O)c1cc3cc(Cl)ccc3[nH]1)=C\CC[C@@]1(C)O[C@@H]21 | 1.38 µM | 2.91 µM | 2.15 µM | 6.92 µM | 0.86 µM | 2.32 µM | 1.25 µM | 2.7 µM | 1.24 µM | 2.51 µM | 0.813 µM | 2.08 µM | 0.44 µM | 2.3 µM | 1.51 µM | 2.91 µM | 1.4 µM | 2.85 µM | 1.63 µM | 3.68 µM
7 | Cn1c2c(c3ccc(Cl)c(Cl)c31)C(C#N)C1(CCNCC1)NC2=O (stereo not given) | 1.66 µM | 3.83 µM | 1.6 µM | 3.03 µM | 1.45 µM | 3.01 µM | 1.42 µM | 2.9 µM | 1.4 µM | 2.9 µM | 1.54 µM | 3.39 µM | 1.96 µM | 3.91 µM | 1.66 µM | 3.36 µM | 1.31 µM | 2.69 µM | 2.72 µM | 9.22 µM
8 | C=CC(=O)Nc1cc2c(Nc3ccc(F)c(Cl)c3)ncnc2cc1OCCCN1CCOCC1 | 0.993 µM and 0.284 µM | 3.26 µM and 2.88 µM | 3.18 µM and 5.3 µM | 11.9 µM and > 10 µM | 1.32 µM and 2.52 µM | 7.01 µM and > 10 µM | 1.52 µM and 1.3 µM | 4.63 µM and > 8.9 µM | 2.67 µM and 4.1 µM | 12 µM and > 10 µM | 1.29 µM and 1.69 µM | 2.7 µM and 3.32 µM | 2 µM and 1.73 µM | 4.88 µM and 7.33 µM | 2.04 µM and 3.04 µM | 10.9 µM and > 10 µM | 1.82 µM and 2.67 µM | 3.46 µM and > 6.08 µM | 1.82 µM and 2.39 µM | 3.94 µM and > 6.12 µM
9 | COc1ccc(C2=NN(C=O)C(c3cccc(Nc4ccnc5cc(Cl)ccc45)c3)C2)cc1 (stereo not given) | 3.71 µM | > 100 µM | 2.18 µM | 37 µM | 1.59 µM | 39.4 µM | 1.97 µM | 12.5 µM | 0.37 µM | 13.1 µM | 2.52 µM | 12.5 µM | 2.03 µM | 4.91 µM | 3.43 µM | 17.6 µM | 11.7 µM | 94.3 µM | 1.87 µM | > 100 µM
10 | Fc1cc2[nH]ncc2c2c3c(c(-c4cn[nH]c4C(F)(F)F)nc12)C1CCC3C1 (stereo not given) | 0.994 µM | 3.77 µM | 0.656 µM | 6.3 µM | 0.815 µM | 5.57 µM | 1.39 µM | 4.87 µM | 1.52 µM | 7.14 µM | 0.818 µM | 3.33 µM | 1.1 µM | 2.6 µM | 1.19 µM | 5.27 µM | 1.38 µM | 5.57 µM | 1.27 µM | 6 µM
11 | Nc1ccc(C(=O)CC(N)C(=O)O)cc1O (stereo not given) |  | > 100 µM |  | > 100 µM |  | > 100 µM |  | > 100 µM |  | > 100 µM |  | > 100 µM |  | > 100 µM |  | > 100 µM |  | > 100 µM |  | > 100 µM
12 | CCn1c(-c2nonc2N)nc2c(C#CC(C)(C)O)nc(OCCNC)cc21 | 8.13 µM | > 25 µM | 5.82 µM | 23.3 µM | 4.9 µM | > 25 µM | 6.16 µM | 17.7 µM | 8.58 µM | > 25 µM | 6.88 µM | > 25 µM | 7.78 µM | 18.2 µM | 7.98 µM | > 25 µM | 5.34 µM | > 25 µM | 8.81 µM | > 25 µM
13 | Nc1ccccc1C#C/C=C\C#Cc1ccccc1[N+](=O)[O-] | 10.9 µM | 79.8 µM | 3.19 µM | 70.6 µM | 3.32 µM | > 100 µM | 4.03 µM | 37 µM | 0.402 µM | 14.1 µM | 2.28 µM | 15.7 µM | 1.96 µM | 60.7 µM | 12.3 µM | 43.2 µM | 12 µM | 43.6 µM | 12.4 µM | 38.5 µM
14 | COc1ccc(-c2oc3c(OC)c(OC)c(OC)c(OC)c3c(=O)c2OC)cc1OC |  | > 100 µM |  | > 100 µM |  | > 100 µM |  | 54.4 µM |  | 98.7 µM |  | > 100 µM |  | 46.7 µM |  | > 100 µM |  | > 100 µM |  | > 100 µM
15 | COc1cc2c(=O)n(CCN)c3c4cc5c(cc4ccc3c2cc1OC)OCO5 | 0.467 µM | 2.07 µM | 0.913 µM | 2.47 µM | 0.175 µM | 1.53 µM | 0.919 µM | 2.26 µM | 0.894 µM | 2.29 µM | 0.362 µM | 1.78 µM | 1.24 µM | 3.53 µM | 0.464 µM | 1.97 µM | 1.08 µM | 2.47 µM | 0.683 µM | 2.51 µM
16 | CNCCn1c(=O)c2cc(OC)c(OC)cc2c2ccc3cc4c(cc3c21)OCO4 | 0.142 µM | 2.29 µM | 0.219 µM | 4.98 µM | 0.0296 µM | 4.43 µM | 0.162 µM | 1.25 µM | 0.131 µM | 0.708 µM | 0.0577 µM | 0.173 µM | 0.173 µM | 0.864 µM | 0.109 µM | 0.537 µM | 0.167 µM | 0.968 µM | 0.112 µM | 0.556 µM
17 | Cc1[nH]nc(C(=O)n2nc(N)c3ccccc32)c1[N+](=O)[O-] | 37.5 µM | > 100 µM | > 100 µM | > 100 µM | > 100 µM | > 100 µM | > 100 µM | > 100 µM | > 100 µM | > 100 µM | > 39.5 µM | > 100 µM |  | > 100 µM | > 100 µM | > 100 µM | > 100 µM | > 100 µM | > 100 µM | > 100 µM
18 | Cc1nc2sccn2c1-c1csc(Nc2cccc(Cl)c2C)n1 | 8.83 µM | 73.2 µM | 3.79 µM | 21.8 µM | 3.34 µM | 25.6 µM | 5.23 µM | 32.2 µM | 1.95 µM | 6.47 µM | 6.5 µM | 20.6 µM | 3.43 µM | 19.3 µM | 9.62 µM | 79.7 µM | 10.4 µM | 40.7 µM |  | 
19 | COc1cc(-c2cn(-c3ccc(Cl)c(Cl)c3)c(=O)n2C(C)=O)cc(OC)c1OC | 5.34 µM | 17.6 µM | 12.3 µM | 28.6 µM | 14.7 µM | 37.7 µM | 14.9 µM | 38.1 µM | 14.2 µM | 35 µM | 13.7 µM | 28 µM | 14.2 µM | 33.9 µM | 2.79 µM | 11.5 µM | 14.9 µM | 29.8 µM |  | 
